Laboratory results taken from patent US9193719B2, “1,2,4-triazol-5-ones and analogs exhibiting anti-cancer and anti-proliferative activities” (Deciphera Pharmaceuticals, LLC, priority 2013, dated 2015).

Columns and labels:
[1] = molecular target: T1, unphosphorylated c-FMS kinase (uFMS, Seq. ID no. 1) (Homo sapiens, UniProt P07333); assay: uFMS kinase enzymatic assay (pyruvate kinase/lactate dehydrogenase coupled); assay type: biochemical; conditions: ATP 500 μM, rate 3 to 4 h
T1 construct: purchased Millipore
T1 sequence (P07333 538-972): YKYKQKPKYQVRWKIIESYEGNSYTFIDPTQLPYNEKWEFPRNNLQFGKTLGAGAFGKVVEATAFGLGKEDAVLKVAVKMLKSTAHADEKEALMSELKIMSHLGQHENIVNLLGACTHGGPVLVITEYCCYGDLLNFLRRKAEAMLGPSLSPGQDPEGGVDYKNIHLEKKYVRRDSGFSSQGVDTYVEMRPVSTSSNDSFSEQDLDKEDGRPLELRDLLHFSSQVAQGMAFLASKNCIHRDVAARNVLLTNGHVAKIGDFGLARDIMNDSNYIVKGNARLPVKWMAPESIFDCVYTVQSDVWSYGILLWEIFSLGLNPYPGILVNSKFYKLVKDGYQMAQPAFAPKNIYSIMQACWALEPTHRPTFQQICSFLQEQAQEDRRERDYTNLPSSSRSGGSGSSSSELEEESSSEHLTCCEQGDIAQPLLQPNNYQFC
Description: uFMS Kinase (Seq. ID No. 1) Assay
Activity of unphosphorylated c-FMS kinase (uFMS, Seq. ID no. 1) was determined by following the production of ADP from the FMS kinase reaction with ATP and poly E4Y as substrates through coupling with the pyruvate kinase/lactate dehydrogenase system (e.g., Schindler et al. Science (2000) 289: 1938-1942). In this assay, the oxidation of NADH (thus the decrease at A340 nm) was continuously monitored spectrophometrically. The reaction mixture (100 μL) contained FMS (purchased from Millipore) (10 nM), polyE4Y (1 mg/mL), MgCl2 (10 mM), pyruvate kinase (4 units), lactate dehydrogenase (0.7 units), phosphoenol pyruvate (1 mM), NADH (0.28 mM) and ATP (500 μM) in 90 mM Tris buffer containing 0.2% octyl-glucoside and 1% DMSO, pH 7.5. The inhibition reaction was started by mixing serial diluted test compound with the above reaction mixture. The absorption at 340 nm was monitored continuously for 4 hours at 30° C. on Synergy 2 plate reader. The reaction rate was calculated using the 3 to 4 h time frame. Percent inhibition was obtained by comparison of reaction rate with that of a control (i.e. in the absence of test compound). IC50 values were calculated from a series of percent inhibition values determined at a range of inhibitor concentrations using software routines as implemented in the GraphPad Prism software package.

[2] = molecular target: T2, unphosphorylated c-KIT kinase (uKIT, Seq. ID no. 2) (Homo sapiens, UniProt P10721); assay: uKit kinase enzymatic assay (pyruvate kinase/lactate dehydrogenase coupled); assay type: biochemical; conditions: ATP 2000 μM, rate 3 to 4 h
T2 construct: uKit with N-terminal GST fusion used for screening
Description: uKit Kinase (Seq. ID No. 2) Assay
Activity of unphosphorylated c-KIT kinase (uKIT, Seq. ID no. 2) was determined by following the production of ADP from the KIT kinase reaction with ATP and poly E4Y as substrates through coupling with the pyruvate kinase/lactate dehydrogenase system (e.g., Schindler et al. Science (2000) 289: 1938-1942). In this assay, the oxidation of NADH (thus the decrease at A340 nm) was continuously monitored spectrophometrically. The reaction mixture (100 μl) contained unphosphorylated KIT (12 nM), polyE4Y (1 mg/mL), MgCl2 (10 mM), pyruvate kinase (4 units), lactate dehydrogenase (0.7 units), phosphoenol pyruvate (1 mM), and NADH (0.28 mM) and ATP (2000 μM) in 90 mM Tris buffer containing 0.2% octyl-glucoside and 1% DMSO, pH 7.5. The inhibition reaction was started by mixing serial diluted test compound with the above reaction mixture. The absorption at 340 nm was monitored continuously for 4 hours at 30° C. on Synergy 2 plate reader (BioTech). Reaction rates around 3 to 4 h time frame were used to calculate % inhibitions, from which IC50 values were generated.

[3] = molecular target: T3, unphosphorylated PDGFRβ kinase (uPDGFRβ, Seq. ID No. 3) (Homo sapiens, UniProt P09619); assay: uPDGFRβ kinase enzymatic assay (pyruvate kinase/lactate dehydrogenase coupled); assay type: biochemical; conditions: ATP 500 μM, rate 1.5 to 2.5 h
T3 construct: purchased DeCode
Description: Unphosphorylated PDGFRβ (uPDGFRβ) Kinase (Seq. ID No. 3) Assay
Activity of unphosphorylated PDGFRβ kinase (uPDGFRβ, Seq. ID No. 3) was determined by following the production of ADP from the kinase reaction with ATP and poly E4Y as substrates through coupling with the pyruvate kinase/lactate dehydrogenase system (e.g., Schindler et al. Science (2000) 289: 1938-1942). In this assay, the oxidation of NADH (thus the decrease at A340 nm) was continuously monitored spectrophometrically. The reaction mixture (100 μL) contained PDGFRβ (DeCode, 15.7 nM), polyE4Y (2.5 mg/mL), MgCl2 (10 mM), pyruvate kinase (4 units), lactate dehydrogenase (0.7 units), phosphoenol pyruvate (1 mM) and NADH (0.28 mM) and ATP (500 μM) in a 90 mM Tris buffer containing 0.2% octyl-glucoside and 1% DMSO, at pH 7.5. The inhibition reaction was started by mixing serial diluted test compound with the above reaction mixture. The absorption at 340 nm was monitored continuously for 4 h at 30° C. on a Polarstar Optima or Synergy 2 plate reader. The reaction rate was calculated using the 1.5 to 2.5 h time frame. Percent inhibition was obtained by comparison of reaction rate with that of a control (i.e. with no test compound). IC50 values were calculated from a series of percent inhibition values determined at a range of inhibitor concentrations using software routines as implemented in the GraphPad Prism software package.

M-NFS-60 cells = assay: M-NFS-60 cell proliferation assay (resazurin); assay type: cell-based; conditions: 67 h incubation
Description: M-NFS-60 cells (catalog #CRL-1838) were obtained from the American Type Culture Collection (ATCC, Manassas, Va.). Briefly, cells were grown in suspension in RPMI 1640 medium supplemented with 10% characterized fetal bovine serum (Invitrogen, Carlsbad, Calif.), 0.05 mM 2-mercaptoethanol, and 20 ng/mL mouse recombinant macrophage colony stimulating factor (M-CSF) at 37° C., 5% CO2, and 95% humidity. Cells were allowed to expand until reaching saturation at which point they were subcultured or harvested for assay use.
M-NFS-60 Cell Proliferation Assay
A serial dilution of test compound was dispensed into a 384-well black clear bottom plate (Corning, Corning, N.Y.). Two thousand five hundred cells were added per well in 50 μL complete growth medium. Plates were incubated for 67 h at 37° C., 5% CO2, and 95% humidity. At the end of the incubation period 10 μL of a 440 μM solution of resazurin (Sigma, St. Louis, Mo.) in PBS was added to each well and incubated for an additional 5 h at 37° C., 5% CO2, and 95% humidity. Plates were read on a Synergy2 reader (Biotek, Winooski, Vt.) using an excitation of 540 nm and an emission of 600 nm. IC50 values were calculated from a series of percent inhibition values determined at a range of inhibitor concentrations using software routines as implemented in the GraphPad Prism software package.

osteoclast precursors = assay: Osteoclast tartrate-resistant acid phosphatase assay; assay type: cell-based; conditions: RANKL and M-CSF, 7-14 days, tartrate-resistant acid phosphatase activity
Description: Osteoclast Tartrate-Resistant Acid Phosphatase Assay
A serial dilution of test compound was dispensed into a 384-well black clear bottom plate (Nalge Nunc International, Rochester, N.Y.). Compound was diluted by the addition of DMEM media supplemented with 10% characterized fetal bovine serum (Invitrogen, Carlsbad, Calif.). Diluted compound was transferred to a 384-well black clear bottom plate. Two-thousand five hundred osteoclast precursors (Lonza, Walkersville, Md.) were added per well in growth media containing Receptor Activator of Nuclear Factor Kappa-beta ligand (RANKL) and M-CSF (R&D Systems, Minneapolis, Minn.). Plates were incubated for 7-14 days at 37 degrees Celsius, 5% CO2, and 95% humidity to allow differentiation of osteoclast precursors. At the end of the incubation period, 10 μL of supernatant from each well was transferred to a clear 384-well plate. Tartrate-resistant acid phosphatase activity in the supernatant samples was determined using an acid phosphatase assay kit (Sigma, St. Louis, Mo.). Absorbance was measured at 550 nm using a plate reader. Data was analyzed using Prism software (Graphpad, San Diego, Calif.) to calculate IC50 values.

T3 sequence (P09619 557-1106): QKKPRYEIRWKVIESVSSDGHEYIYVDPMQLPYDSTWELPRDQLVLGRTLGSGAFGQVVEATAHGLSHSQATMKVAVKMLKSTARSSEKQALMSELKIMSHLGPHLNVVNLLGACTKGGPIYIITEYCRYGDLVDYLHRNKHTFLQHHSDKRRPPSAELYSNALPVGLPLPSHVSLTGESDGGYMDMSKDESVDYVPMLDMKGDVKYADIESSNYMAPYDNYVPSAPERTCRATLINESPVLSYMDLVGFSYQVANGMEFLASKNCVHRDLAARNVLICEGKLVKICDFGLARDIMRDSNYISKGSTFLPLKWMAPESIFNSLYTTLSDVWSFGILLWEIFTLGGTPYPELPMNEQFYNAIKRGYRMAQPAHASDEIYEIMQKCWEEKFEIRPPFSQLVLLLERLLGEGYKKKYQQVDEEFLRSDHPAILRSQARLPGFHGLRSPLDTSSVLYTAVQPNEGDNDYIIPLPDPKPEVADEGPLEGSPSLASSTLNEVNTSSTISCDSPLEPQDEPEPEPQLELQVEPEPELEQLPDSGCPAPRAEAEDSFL
T2 sequence (P10721 with tags, fused parts or gaps): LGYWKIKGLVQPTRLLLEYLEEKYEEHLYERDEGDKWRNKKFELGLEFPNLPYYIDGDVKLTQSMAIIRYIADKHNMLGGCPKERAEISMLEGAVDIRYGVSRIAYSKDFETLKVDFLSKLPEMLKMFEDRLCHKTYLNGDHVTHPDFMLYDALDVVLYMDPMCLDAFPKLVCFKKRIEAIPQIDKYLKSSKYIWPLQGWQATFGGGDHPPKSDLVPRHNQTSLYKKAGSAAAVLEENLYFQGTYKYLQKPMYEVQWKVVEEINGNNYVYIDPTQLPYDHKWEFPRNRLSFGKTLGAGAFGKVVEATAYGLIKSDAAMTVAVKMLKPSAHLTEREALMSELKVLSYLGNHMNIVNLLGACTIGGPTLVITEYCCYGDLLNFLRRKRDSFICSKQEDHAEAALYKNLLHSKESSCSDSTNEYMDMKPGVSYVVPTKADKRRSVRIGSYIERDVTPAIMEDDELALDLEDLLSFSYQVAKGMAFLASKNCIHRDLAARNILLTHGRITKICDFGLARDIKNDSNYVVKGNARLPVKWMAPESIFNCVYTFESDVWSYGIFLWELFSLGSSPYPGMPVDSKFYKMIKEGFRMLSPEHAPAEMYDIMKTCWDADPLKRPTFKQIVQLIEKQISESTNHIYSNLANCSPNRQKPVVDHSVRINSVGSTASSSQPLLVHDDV

IC50 [1] [nM] | IC50 [2] [nM] | IC50 [3] [nM] | IC50 (osteoclast precursors) [nM] | SMILES | IC50 (M-NFS-60 cells) [nM]
10 to 100 | 100 to 1000 | > 1000 | 10 to 100 | Cc1nc(-n2nc(C(C)(C)C)[nH]c2=O)ccc1Oc1ccnc(-c2ccc(N3CCN(C)CC3)nc2)c1 [Example 40, 3-(tert-butyl)-1-(6-methyl-5-((6′-(4-methylpiperazin-1-yl)-[2,3′-bipyridin]-4-yl)oxy)pyridin-2-yl)-1H-1,2,4-triazol-5(4H)-one] | 10 to 100
100 to 1000 | > 1000 | > 1000 | 100 to 1000 | Cc1nc(-n2nc(C(C)(C)C)[nH]c2=O)ccc1Oc1ccnc(-c2ccnc(N3CCN(C)CC3)c2)c1 [Example 41, 3-(tert-butyl)-1-(6-methyl-5-((2′-(4-methylpiperazin-1-yl)-[2,4′-bipyridin]-4-yl)oxy)pyridin-2-yl)-1H-1,2,4-triazol-5(4H)-one] | > 1000
≤ 10 | ≤ 10 | 10 to 100 | 10 to 100 | Cc1nc(-n2nc(C3CCCC3)[nH]c2=O)ccc1Oc1ccnc(-c2cnn(C)c2)c1 [Example 34, 3-cyclopentyl-1-(6-methyl-5-((2-(1-methyl-1H-pyrazol-4-yl)pyridin-4-yl)oxy)pyridin-2-yl)-1H-1,2,4-triazol-5(4H)-one] | ≤ 10
100 to 1000 | 100 to 1000 | > 1000 | 100 to 1000 | Cc1nc(-n2nc(C3CC3)[nH]c2=O)ccc1Oc1ccnc(-c2cnn(C)c2)c1 [Example 35, 3-cyclopropyl-1-(6-methyl-5-((2-(1-methyl-1H-pyrazol-4-yl)pyridin-4-yl)oxy)pyridin-2-yl)-1H-1,2,4-triazol-5(4H)-one] | > 1000
100 to 1000 | 100 to 1000 | 100 to 1000 | 100 to 1000 | COC(C)(C)c1nn(-c2cc(C)c(Oc3ccnc(NC(C)=O)c3)cn2)c(=O)[nH]1 [Example 44, N-(4((6-(3-(2-methoxypropan-2-yl)-5-oxo-4,5-dihydro-1H-1,2,4-triazol-1-yl)-4-methylpyridin-3-yl)oxy)pyridin-2-yl)acetamide] | 100 to 1000

The remaining lines, values behind:

SMILES | IC50 [1] [nM] | IC50 [2] [nM] | IC50 [3] [nM] | IC50 (osteoclast precursors) [nM] | IC50 (M-NFS-60 cells) [nM]
Cc1cn(-c2cc(Oc3ccc(-n4nc(-c5ccc(F)cc5)[nH]c4=O)nc3C)ccn2)cn1 [Example 29, 3-(4-fluorophenyl)-1-(6-methyl-5-((2-(4-methyl-1H-imidazol-1-yl)pyridin-4-yl)oxy)pyridin-2-yl)-1H-1,2,4-triazol-5(4H)-one] | 10 to 100 | 100 to 1000 | > 1000 | 100 to 1000 | 100 to 1000
Cc1nc(-n2nc(-c3ccc(F)cc3)[nH]c2=O)ccc1Oc1ccnc(NC(=O)C2CC2)c1 [Example 32, N-(4-((6-(3-(4-fluorophenyl)-5-oxo-4,5-dihydro-1H-1,2,4-triazol-1-yl)-2-methylpyridin-3-yl)oxy)pyridin-2-yl)cyclopropanecarboxamide] | 10 to 100 | 10 to 100 | 100 to 1000 | 100 to 1000 | 100 to 1000
CC(=O)Nc1cc(Oc2ccc(-n3nc(C(C)(C)C)[nH]c3=O)nc2C)ccn1 [Example 11, N-(4-((6-(3-(tert-butyl)-5-oxo-4,5-dihydro-1H-1,2,4-triazol-1-yl)-2-methylpyridin-3-yl)oxy)pyridin-2-yl)acetamide] | 10 to 100 | > 1000 | > 1000 | 100 to 1000 | 100 to 1000
Cc1nc(-n2nc(C(C)(C)C)[nH]c2=O)ccc1Oc1ccnc(-c2cnn(CCO)c2)c1 [Example 18, 3-(tert-butyl)-1-(5-((2-(1-(2-hydroxyethyl)-1H-pyrazol-4-yl)pyridin-4-yl)oxy)-6-methylpyridin-2-yl)-1H-1,2,4-triazol-5(4H)-one] | 10 to 100 | 100 to 1000 | > 1000 | 100 to 1000 | 100 to 1000
COCCc1nn(-c2ccc(Oc3ccnc(-c4cnn(C)c4)c3)c(C)n2)c(=O)[nH]1 [Example 15, 3-(2-methoxyethyl)-1-(6-methyl-5-((2-(1-methyl-1H-pyrazol-4-yl)pyridin-4-yl)oxy)pyridin-2-yl)-1H-1,2,4-triazol-5(4H)-one] | 10 to 100 | > 1000 | > 1000 | 100 to 1000 | > 1000
